Laboratory results published in patent US12599673B2, “Techniques for enhancing the selectivity and efficacy of antimicrobial and anticancer polymer agents” (International Business Machines Corporation, priority 2018, dated 2026).

How the values were obtained:
P. aeruginosa = experiment: Minimal inhibitory concentration toward P. aeruginosa; format: cell-based, Pseudomonas aeruginosa
Protocol: FIG. 15A presents a Graph 1500 illustrating the antimicrobial selectivity and efficacy of example therapeutic polymers and coacervate complexes against P. aeruginosa in accordance with various embodiments described herein. […] The tested efficacy is based on their respective minimal inhibitory concentrations (MICs) toward P. aeruginosa. […] The commercial standard antibiotic Polymyxin B sulfate (PolyB) and Complex X were also tested for selectivity and efficacy/toxicity for comparison. Complex X is used herein to refer to a coacervate complex formed with Polymer A in combination with PolyB (as opposed to Polymer A and the disclosed therapeutic polyguanidinium based Polymers). FIG. 15B provides a corresponding Table 1501 for Graph 1500. In addition to the MIC and HC50 values reflected in Graph 1500, Table 1501 also identifies the […] (SI) of the respective polymers and corresponding coacervate complexes. Repetitive description of like elements employed in respective embodiments is omitted for sake of brevity.

[1] = tested on: THP-1 cells (a human monocytic cell line); experiment: Biocompatibility/toxicity with THP-1 cells (cell viability); format: cell-based
Protocol: FIG. 17 presents a Graph 1700 illustrating the biocompatibility/toxicity of various therapeutic polymers and coacervate complexes with mammalian cells in accordance with various embodiments described herein. […] In accordance with the data reflected in Graph 1700, different dosages (e.g., from 2 ppm to 1000 ppm in μg/mL) of the respective polymers and coacervate complexes were incubated with the THP-1 cells for 24 hours at 37° C. The polymers tested include Polymer A, Polymer B, Polymer C, Polymer D, and Polymer E. The coacervates tested include Complex B, Complex C, Complex D, and Complex E. The percent cell viability detected at concentrations less than 63 ppm were substantially the same as those shown for 63 ppm, and thus are not depicted to minimize the complexity of the visualization.

[2] = In vivo toxicity in mice (LD50)
Protocol: FIGS. 21A and 21B provides tables illustrating the in vivo toxicity and antimicrobial efficacy of coacervate complexes in accordance with various embodiments described herein. […] The data presented in both tables 2101 and 2102 reflect testing using a mouse model.
With reference to FIG. 21 and Table 2101 the in vivo toxicity of different antimicrobials was measured as a function of the lethal dose 50 (LD50) values (which is the amount of antimicrobial that kills 50% of the tested population). […] In fact, the LD50 level of Complex E is so high that is cannot be measured. […] This in-vivo toxicity data is further commensurate with the in vitro toxicity data and in vitro hemolysis data discussed above.

Substance: Polymyxin B sulfate [PolyB]
- MIC toward P. aeruginosa (P. aeruginosa): 0.5 mg/L
- percent cell viability THP-1 ([1]; 1000 ppm, 24 hours at 37° C): below 20%
- cell viability THP-1 ([1]; about 250 ppm): 50%
- cell viability THP-1 ([1]; about 500 ppm): ~30%
- LD50 [2]: 5.4 mg/kg
